Measurements: patent US6872401B2, “Cosmetic/dermatological compositions comprising a tetrahydrocurcuminoid and an amide oil” (L'Oreal, priority 2002, dated 2005)

Test: Test of solubility: mixture of tetrahydrocurcuminoids in oils, microscopic examination
Assay type: physicochemical
Conditions: 1 g Tetrahydrocurcuminoids CG adjusted to 10 g with the oil, 15 minutes at 80° C., cooled 24 hours at room temperature
Protocol: Two amide oils in accordance with the invention are compared to 13 conventional oils used in cosmetics. Their solubilizing power is studied on a mixture of tetrahydrocurcuminoids of formula (I): i.e., the commercial product Tetrahydrocurcuminoids CG from Sabinsa as defined above.
1 g of a mixture of tetrahydrocurcuminoids is weighed and adjusted to 10 g with the oil studied. The mixture is heated for 15 minutes on a waterbath at 80° C. It is allowed to cool for 24 hours at room temperature and a microscopic examination is performed.

Question: Which “SOLUBILITY AFTER 24 HOURS AT ROOM TEMPERATURE” value does the source give for `CCCCN(CCC(=O)OCC)C(C)=O` [N-acetyl-N-butylaminopropionate] here?
Answer: completely dissolve the mixture of tetrahydrocurcuminoids
